Source: patent US7105516B2, “Compounds for the treatment of premature ejaculation” (Bristol-Myers Squibb Company, priority 2002, dated 2006)
Read-outs that look alike come from different tables or passages of the source.

What was measured:
[1] = target: T1, human serotonin transporters (Homo sapiens, UniProt P31645); experiment: Serotonin Transporter Binding Assay ([3H]-citalopram displacement, HEK-hSERT cell membranes); details: 1 nM [3H]-citalopram, 1 hr at 25° C.
T1 construct: expressed in transfected cells; membrane homogenates
T1 sequence (P31645 whole entry): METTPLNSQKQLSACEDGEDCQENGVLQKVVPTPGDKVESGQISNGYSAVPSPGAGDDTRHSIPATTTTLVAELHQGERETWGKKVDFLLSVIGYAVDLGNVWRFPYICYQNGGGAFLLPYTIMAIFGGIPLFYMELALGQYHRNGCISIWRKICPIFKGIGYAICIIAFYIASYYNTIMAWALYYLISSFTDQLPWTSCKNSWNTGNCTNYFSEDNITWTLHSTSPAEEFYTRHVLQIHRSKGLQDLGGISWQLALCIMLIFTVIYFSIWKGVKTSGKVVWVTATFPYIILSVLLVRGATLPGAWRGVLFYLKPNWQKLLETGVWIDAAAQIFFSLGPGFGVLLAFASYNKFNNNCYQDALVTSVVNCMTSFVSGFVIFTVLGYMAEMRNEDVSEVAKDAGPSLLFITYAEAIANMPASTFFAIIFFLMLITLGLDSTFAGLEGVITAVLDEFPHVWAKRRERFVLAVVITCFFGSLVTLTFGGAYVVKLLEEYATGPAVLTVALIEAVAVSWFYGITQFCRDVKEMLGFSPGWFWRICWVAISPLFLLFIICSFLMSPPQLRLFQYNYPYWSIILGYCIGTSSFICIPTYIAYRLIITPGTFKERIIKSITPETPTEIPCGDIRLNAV
Procedure: HEK-293 cells that stably express human serotonin transporters (HEK-hSERT cells) were grown at 37° C. in 5% CO2 as a monolayer in medium consisting of EMEM supplemented with 10% fetal bovine serum and G418 sulfate (500 μg/mL). […] Cells were transferred from plates to polypropylene tubes (16×100 mm), centrifuged at 1,200×g for 5 min and were frozen at −80° C. until assay. Following centrifugation, pellets were resuspended by homogenization in buffer consisting of 50 mM Tris (pH 7.7 at 25° C.), 120 mM NaCl and 5 mM KCl and then centrifuged at 32,000×g for 10 min. Following centrifugation, supernatants were discarded and pellets were resuspended in buffer consisting of 50 mM Tris (pH 7.4 at 25° C.), 150 mM NaCl and 5 mM KCl. Membrane homogenates (200 μl/plate) were incubated with 1 nM [^3H]-citalopram (specific activity=85 Ci/mMol) and increasing concentrations of test compounds for 1 hr at 25° C. in a total volume of 250 μl. The assay buffer consisted of 50 mM Tris (pH 7.4 at 25° C.), 120 mM NaCl and 5 mM KCl (pH 7.4 with conc. HCl). Plates were incubated for 1 hr at 25° C., then filtered through 0.5% PEI treated Whatman GF/B filters using a Brandel cell harvester. Filters were washed three times with 3 mL of ice-cold tris wash buffer. Non-specific binding was defined with 10 μM fluoxetine. Amount of radioligand bound in the presence and absence of competitor was analyzed by plotting (−)log drug concentration versus the amount of radioligand specifically bound. The midpoint of the displacement curve (IC50, nM), signifies the potency.

[2] = target: T2, human norepinephrine transporters (Homo sapiens, UniProt P23975); experiment: Norepinephrine Transporter Binding Assay ([3H]-nisoxetine displacement, hNET cell membranes); details: 2.7 nM [3H]-nisoxetine, 1 hr at 4° C., read-out: NE reuptake binding Ki
T2 construct: the text also calls them 'HEK-hNET cells'); membrane homogenates
T2 sequence (P23975 whole entry): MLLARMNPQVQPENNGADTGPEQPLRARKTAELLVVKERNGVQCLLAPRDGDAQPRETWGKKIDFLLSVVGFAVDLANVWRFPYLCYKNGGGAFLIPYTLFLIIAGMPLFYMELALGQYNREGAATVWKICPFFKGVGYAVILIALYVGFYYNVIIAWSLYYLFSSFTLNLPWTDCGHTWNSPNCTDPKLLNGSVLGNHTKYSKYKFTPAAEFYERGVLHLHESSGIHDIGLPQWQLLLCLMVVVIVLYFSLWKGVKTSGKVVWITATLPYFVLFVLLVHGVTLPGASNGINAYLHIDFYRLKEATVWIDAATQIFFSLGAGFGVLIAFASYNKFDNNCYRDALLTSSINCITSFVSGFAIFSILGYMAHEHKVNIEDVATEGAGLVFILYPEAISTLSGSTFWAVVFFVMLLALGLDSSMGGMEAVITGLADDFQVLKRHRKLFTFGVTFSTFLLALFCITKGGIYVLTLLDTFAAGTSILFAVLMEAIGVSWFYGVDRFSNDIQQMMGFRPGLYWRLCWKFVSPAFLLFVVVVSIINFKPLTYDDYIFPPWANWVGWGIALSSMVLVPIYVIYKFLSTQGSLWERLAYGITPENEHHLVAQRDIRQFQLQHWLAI
Procedure: MDCK cells that stably express human norepinephrine transporters (HEK-hNET cells) were supplied by Receptor Biology, Inc. Pellets were resuspended by homogenization in buffer consisting of 50 mM Tris (pH 7.4 at 25° C.), 120 mM NaCl and 5 mM KCl. Membrane homogenates (200 μl/well, 8 ug protein) were incubated with 2.7 nM [^3H]-nisoxetine (specific activity=80 Ci/mMol) and increasing concentrations of test compounds for 1 hr at 4° C. in a total volume of 250 μl. The assay buffer consisted of 50 mM Tris (pH 7.4 at 25° C.), 120 mM NaCl and 5 mM KCl (pH 7.4 with conc. HCl). Plates were incubated for 1 hr at 4° C., then filtered through 0.5% PEI treated Whatman GF/B filters using a Brandel cell harvester. Filters were washed three times with 3 mL of ice-cold tris wash buffer. Non-specific binding was defined with 10 μM desipramine. Amount of radioligand bound in the presence and absence of competitor was analyzed by plotting (−)log drug concentration versus the amount of radioligand specifically bound. The midpoint of the displacement curve (IC50, nM), signifies the potency. Ki values were calculated using the method of Cheng and Prusoff (1973).

[3] = read-out: 5-HT reuptake binding Ki

Compound | Ki [1, 3] [nM] | Ki [2] [nM] | Ki ([1]; 5-HT reuptake binding Ki) [nM]
CN(C)C[C@H]1CCC[C@@H]1c1c[nH]c2ccc(I)cc12 [Example 52, (1S,2S)-[2-(5-iodo-1H-indol-3-yl)-cyclopentylmethyl]-dimethylamine] | 10 to 100 |  | 
CCN(CC)C[C@H]1CCC[C@@H]1c1ccc2[nH]cc(C#N)c2c1 (relative stereo) [Example 39, Trans-5-(diethylaminomethyl-cyclopentyl)-1H-indole-3-carbonitrile] | 100 to 500 | > 1000 | 
CNC[C@@H]1CCC[C@@H]1c1ccc2[nH]cc(C#N)c2c1 (relative stereo) [Example 42, Cis-5-(methylaminomethyl-cyclopentyl)-1H-indole-3-carbonitrile] | 10 to 100 | 100 to 500 | 
CN(Cc1ccccc1)C[C@H]1CCC[C@@H]1c1c[nH]c2ccc(C#N)cc12 (relative stereo) [Example 31, Trans-3-{2-[(benzyl-methyl-amino)-methyl]-cyclopentyl}-1H-indole-5-carbonitrile] | 10 to 100 | > 1000 | 
CCC([C@H]1CCC[C@@H]1c1c[nH]c2ccc(C#N)cc12)N(C)C (mixture of isomers) [Example 50, (+/−) trans-3-[2-(1-dimethylaminopropyl)cyclopentyl]-1H-indole-5-carbonitrile,diastereomer A] | 10 to 100 |  | 
CN(C)C[C@@H]1CCC[C@@H]1c1ccc2[nH]cc(C#N)c2c1 (relative stereo) [Example 43, Cis-5-(dimethylaminomethyl-cyclopentyl)-1H-indole-3-carbonitrile] | 1 to 10 |  | 
CC([C@H]1CCCC1c1c[nH]c2ccc(C#N)cc12)N(C)C (single isomer, unassigned) [Example 48] | 10 to 100 |  | 
CC([C@H]1CCCC1c1c[nH]c2ccc(C#N)cc12)N(C)C (single isomer, unassigned) [Example 49] | < 1 |  | 
CNC[C@H]1CCC[C@@H]1c1ccc2[nH]cc(C#N)c2c1 (relative stereo) [Example 35, Trans-5-(2-methylaminomethyl-cyclopentyl)-1H-indole-3-carbonitrile] | 1 to 10 | > 1000 | 
CN(C)C[C@H]1CCC[C@@H]1c1cn(C)c2ccc(C#N)cc12 (relative stereo) [Example 32, Trans-3-(2-dimethylaminomethyl-cyclopentyl)-1-methyl-1H-indole-5-carbonitrile] |  | > 1000 | 1 to 10
N#Cc1ccc2[nH]cc([C@H]3CCC[C@@H]3CN3CCCC3)c2c1 (relative stereo) [Example 30, Trans-3-(pyrrolidin-1-ylmethyl-cyclopentyl)-1H-indole-5-carbonitrile] |  | > 1000 | 1 to 10
CN(C)C[C@@H]1CCC[C@H]1c1c[nH]c2ccc(C#N)cc12 (single isomer, unassigned; enantiomer a) [Example 44] |  | > 1000 | 10 to 100
CCNC[C@H]1CCC[C@@H]1c1ccc2[nH]cc(C#N)c2c1 (relative stereo) [Example 37, Trans-5-(ethylaminomethyl-cyclopentyl)-1H-indole-3-carbonitrile] | 100 to 500 | > 1000 | 
N#Cc1c[nH]c2ccc([C@H]3CCC[C@@H]3CN3CCCC3)cc12 (relative stereo) [Example 36, Trans-5-(2-pyrrolidin-1-ylmethyl-cyclopentyl)-1H-indole-3-carbonitrile] | 100 to 500 | > 1000 | 
CN(C)C[C@H]1CCC[C@@H]1c1ccc2c(c1)c(C#N)cn2C (relative stereo) [Example 41, Trans-5-(2-dimethylaminomethyl-cyclopentyl)-1-methyl-1H-indole-3-carbonitrile] | 100 to 500 | > 1000 | 
CN(Cc1ccccc1)C[C@H]1CCC[C@@H]1c1ccc2[nH]cc(C#N)c2c1 (relative stereo) [Example 40, Trans-5-{2-[(benzyl-methyl-amino)-methyl]-cyclopentyl}-1H-indole-3-carbonitrile] | 10 to 100 | > 1000 | 

Compound | Ki [1, 3] [nM] | Ki [2] [nM] | Ki ([1]; 5-HT reuptake binding Ki) [nM]
CC([C@H]1CCCC1c1c[nH]c2ccc(C#N)cc12)N(C)C (single isomer, unassigned; diastereomer b) [Example 47, (+/−) trans-3-[2-(1-dimethylaminoethyl)cyclopentyl]-1H-indole-5-carbonitrile,diastereomer B] | 1 to 10 |  | 
CN(Cc1ccccc1)C1CCCC1Cc1c[nH]c2ccc(C#N)cc12 (centres unmarked) [Example 60, 3-[2-(Benzyl-methyl-amino)-cyclopentylmethyl]-1H-indole-5-carbonitrile] | 10 to 100 |  | 
CN(C)C[C@H]1CCC[C@@H]1c1c[nH]c2ccc(C#N)cc12 (racemic) [Example 25, Trans-3-(2-dimethylaminomethyl-cyclopentyl)-1H-indole-5-carbonitrile] |  | > 1000 | < 1
CCN(C)C[C@H]1CCC[C@@H]1c1ccc2[nH]cc(C#N)c2c1 (relative stereo) [Example 38, Trans-5-{2-[(ethyl-methyl-amino)-methyl]-cyclopentyl}-1H-indole-3-carbonitrile] | 100 to 500 | > 1000 | 
CCC([C@H]1CCC[C@@H]1c1c[nH]c2ccc(C#N)cc12)N(C)C (mixture of isomers) [Example 51, (+/−) trans-3-[2-(1-dimethylaminopropyl)cyclopentyl]-1H-indole-5-carbonitrile,diastereomer B] | 100 to 500 |  | 
CCN(C)C[C@H]1CCC[C@@H]1c1c[nH]c2ccc(C#N)cc12 (relative stereo) [Example 29, Trans-3-{2-[(ethyl-methyl-amino)-methyl]-cyclopentyl}-1H-indole-5-carbonitrile] |  | > 1000 | 1 to 10
CCN(CC)C[C@H]1CCC[C@@H]1c1c[nH]c2ccc(C#N)cc12 (relative stereo) [Example 28, Trans-3-(2-diethylaminomethyl-cyclopentyl)-1H-indole-5-carbonitrile] |  | > 1000 | 100 to 500
CCNC1CCCC1Cc1c[nH]c2ccc(C#N)cc12 (centres unmarked) [Example 56, 3-(2-Ethylamino-cyclopentylmethyl)-1H-indole-5-carbonitrile] | 1 to 10 |  | 
CCN(CC)C1CCCC1Cc1c[nH]c2ccc(C#N)cc12 (centres unmarked) [Example 57, 3-(2-Diethylamino-cyclopentylmethyl)-1H-indole-5-carbonitrile] | 10 to 100 |  | 
CNC[C@H]1CCC[C@@H]1c1c[nH]c2ccc(C#N)cc12 (relative stereo) [Example 26, Trans-3-(2-methylaminomethyl-cyclopentyl)-1H-indole-5-carbonitrile] | 1 to 10 | > 1000 | 
CNC1CCCC1Cc1c[nH]c2ccc(C#N)cc12 (centres unmarked) [Example 55, 3-(2-Methylamino-cyclopentylmethyl)-1H-indole-5-carbonitrile] | 1 to 10 |  | 
CN(C)C1CCCC1Cc1c[nH]c2ccc(C#N)cc12 (mixture of isomers) [Example 54, 3-(2-Dimethylamino-cyclopentylmethyl)-1H-indole-5-carbonitrile] | 1 to 10 |  | 
CCn1cc([C@H]2CCC[C@@H]2CN(C)C)c2cc(C#N)ccc21 (relative stereo) [Example 33, Trans-3-(2-dimethylaminomethyl-cyclopentyl)-1-ethyl-1H-indole-5-carbonitrile] | 1 to 10 | > 1000 | 
CC([C@H]1CCCC1c1c[nH]c2ccc(C#N)cc12)N(C)C (single isomer, unassigned; diastereomer a) [Example 46, (+/−) trans-3-[2-(1-dimethylaminoethyl)cyclopentyl]-1H-indole-5-carbonitrile,diastereomer A] |  | > 1000 | < 1
CCN(C)C1CCCC1Cc1c[nH]c2ccc(C#N)cc12 (centres unmarked) [Example 58, 3-[2-(Ethyl-methyl-amino)-cyclopentylmethyl]-1H-indole-5-carbonitrile] | 1 to 10 |  | 
N#Cc1ccc2[nH]cc(CC3CCCC3N3CCCC3)c2c1 (centres unmarked) [Example 59, 3-(2-Pyrrolidin-1-yl-cyclopentylmethyl)-1H-indole-5-carbonitrile] | 1 to 10 |  | 
